Values of other authors, collected in patent US20210393932A1, “DERMAL PATCHES AND GLASS SWABS FOR APPLICATION OF TOPICAL IMMUNOSENSITIZERS” (Squarex, LLC, priority 2020, published 2021).

Tested on: common warts and alopecia areata
Details: solutions of 0.05% to 2.0% weight/volume, vehicle almost always acetone, applied repeatedly (Buckley et al., Lee et al.); cited from earlier work

Compound	treatment of common warts and alopecia areata
O=[N+]([O-])c1ccc(Cl)c([N+](=O)[O-])c1 [DNCB, 1-chloro-2,4-dinitrobenzene]	used successfully
O=c1c(-c2ccccc2)c1-c1ccccc1 [diphenylcyclopropenone]	used successfully
